Reference: the supplement of paper PMC11061612

Experiments:
[1] = system: RPMI-8402 (T-Lymphoblastic Leukemia); test: Bliss excess, mean over the matrix (fraction); higher = more synergy
Outline: (§1)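 After 24 hours at 37°C and 5% CO2 in 1536-well plates, cells in DMEM/F12 or RPMI plus 10% FBS received two-drug dose matrices for 72 hours. Viability came from CellTiter-Glo 2.0 luminescence and was scaled as inhibition, anchored at 0 by vehicle wells and at 1 by blank wells. Combination Emax is taken as the second-highest inhibition in the matrix, and Bliss excess as the observed combination effect less EA + EB − EA·EB, with EA and EB the single-agent effects.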

[2] = system: OVKATE (Ovarian Carcinoma); test: as above
Outline: as §1

[3] = system: NCI-H1435 (Non-Small Cell Lung Carcinoma); test: as above
Outline: as §1

SK-MEL-24 (Melanoma) [4] = test: as above
Outline: as §1

C32 (Melanoma) = test: as above
Outline: as §1

[5] = system: NCI-H1648 (Lung Adenocarcinoma); test: as above
Outline: as §1

[6] = system: NCI-H2023 (Non-Small Cell Lung Carcinoma); test: as above
Outline: as §1

[7] = system: SBC-3 (Small Cell Lung Carcinoma); test: as above
Outline: as §1

[8] = system: OVKATE (Ovarian Carcinoma); test: combination Emax (second highest fraction inhibited in the dose matrix, 72 h); higher = more inhibition; extreme values may be limits of the assay
Outline: as §1

[9] = system: SW1463 (Colorectal Carcinoma); test: as above
Outline: as §1

SK-MEL-24 (Melanoma) [10] = test: as above
Outline: as §1

[11] = system: NTERA-2-cl-D1 (Other Solid Carcinomas); test: as above
Outline: as §1
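Wherever Bliss excess, mean over the matrix is given: after 72 h of two-drug dosing.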

SMILES | Bliss excess [1] | Bliss excess [2] | Bliss excess [3] | Bliss excess (SK-MEL-24 (Melanoma) [4]) | Bliss excess (C32 (Melanoma)) | Bliss excess [5] | Bliss excess [6] | Bliss excess [7] | combination Emax [8] | combination Emax [9] | combination Emax (SK-MEL-24 (Melanoma) [10]) | combination Emax [11]
C=CCn1c(=O)c2cnc(Nc3ccc(N4CCN(C)CC4)cc3)nc2n1-c1cccc(C(C)(C)O)n1 [AZD1775] + Nc1ccn([C@@H]2O[C@H](CO)[C@@H](O)C2(F)F)c(=O)n1 [Gemcitabine] (first compound max 1 µM, partner max 0.3 µM) | 0.0141 | -0.0681 | -0.0012 | 0.0069 | -0.0569 | -0.0038 | 0.0248 | -0.0105 | 0.261 | 0.763 | 0.793 | 0.614
CN(CCO)CC[C@H](CSc1ccccc1)Nc1ccc(S(=O)(=O)NC(=O)c2ccc(N3CCC([C@@H](O)c4ccccc4-c4ccc(Cl)cc4)CC3)cc2)cc1S(=O)(=O)C(F)(F)F [AZD4320] + CS(=O)(=O)CCNCc1ccc(-c2ccc3ncnc(Nc4ccc(OCc5cccc(F)c5)c(Cl)c4)c3c2)o1 [Lapatinib] (first compound max 1 µM, 7x7, partner max 10 µM) | 0.0949 | -0.0082 | 0.0765 | 0.0316 | -0.0269 | -0.0316 | 0.0132 | 0.052 | 0.677 | 0.974 | 0.942 | 0.965
Cc1c2c(nn1C)CSCc1cc(n(C)n1)CSc1cc(c3ccccc3c1)OCCCc1c(C(=O)O)n(C)c3c-2c(Cl)ccc13 [AZD5991] + CC(=O)O[C@H]1C(=O)[C@@]2(C)[C@H]([C@H](OC(=O)c3ccccc3)[C@]3(O)C[C@H](OC(=O)[C@H](O)[C@@H](NC(=O)c4ccccc4)c4ccccc4)C(C)=C1C3(C)C)[C@]1(OC(C)=O)CO[C@@H]1C[C@@H]2O [Paclitaxel] (first compound max 1 µM, 7x7, partner max 3 µM) | 0.0139 | -0.0107 | 0.0254 | -0.0449 | 0.0017 | -0.0144 | 0.0058 | -0.0404 | 0.217 | 0.527 | 0.692 | 0.614
Cc1c2c(nn1C)CSCc1cc(n(C)n1)CSc1cc(c3ccccc3c1)OCCCc1c(C(=O)O)n(C)c3c-2c(Cl)ccc13 [AZD5991] + CS(=O)(=O)CCNCc1ccc(-c2ccc3ncnc(Nc4ccc(OCc5cccc(F)c5)c(Cl)c4)c3c2)o1 [Lapatinib] (first compound max 1 µM, 7x7, partner max 10 µM) | 0.0115 | -0.0552 | -0.0063 | -0.0651 | -0.0014 | -0.023 | 0.0021 | -0.0235 | 0.307 | 0.51 | 0.806 | 0.487
Cc1c2c(nn1C)CSCc1cc(n(C)n1)CSc1cc(c3ccccc3c1)OCCCc1c(C(=O)O)n(C)c3c-2c(Cl)ccc13 [AZD5991] + Nc1ccn([C@@H]2O[C@H](CO)[C@@H](O)C2(F)F)c(=O)n1 [Gemcitabine] (first compound max 1 µM, 7x7, partner max 0.3 µM) | 0.0264 | -0.0373 | -0.0706 | -0.0245 | -0.0117 | -0.0061 | -0.0707 | 0.0059 | 0.165 | 0.516 | 0.758 | 0.536
C[C@@H]1COCCN1c1cc(C2([S@](C)(=N)=O)CC2)nc(-c2ccnc3[nH]ccc23)n1 [AZD6738] + C1CC(C1)(C(=O)[O-])C(=O)[O-].N.N.[Pt+2] [Carboplatin] (first compound max 10 µM, 7x7, partner max 10 µM) | -0.0461 | -0.0642 | -0.0103 | -0.0748 | -0.0133 | -0.0579 | -0.0208 | -0.031 | 0.211 | 0.409 | 0.36 | 0.524
C[C@@H]1COCCN1c1cc(C2([S@](C)(=N)=O)CC2)nc(-c2ccnc3[nH]ccc23)n1 [AZD6738] + Nc1ccn([C@@H]2O[C@H](CO)[C@@H](O)C2(F)F)c(=O)n1 [Gemcitabine] (first compound max 10 µM, 7x7, partner max 0.3 µM) | 0.0319 | -0.0172 | 0.0799 | 0.0379 | -0.0247 | 0.0542 | 0.0123 | 0.0306 | 0.345 | 0.792 | 0.841 | 0.592
C[C@@H](Nc1cc(F)cc(F)c1)c1cc(C(=O)N(C)C)cc2c(=O)cc(N3CCOCC3)oc12 [AZD8186] + C1CN(CCC1(C(=O)N[C@@H](CCO)C2=CC=C(C=C2)Cl)N)C3=NC=NC4=C3C=CN4 [AZD5363] (first compound max 10 µM, 7x7, partner max 10 µM) | -0.0783 | -0.0281 | 0.0283 | -0.0455 | -0.0235 | -0.0377 | -0.0589 | 0.0272 | 0.252 | 0.274 | 0.508 | 0.348
C[C@@H](Oc1cc(-c2cnn(C3CCNCC3)c2)cnc1N)c1c(Cl)ccc(F)c1Cl [Crizotinib] + CC1=C(C(=CC=C1)Cl)NC(=O)C2=CN=C(S2)NC3=CC(=NC(=N3)C)N4CCN(CC4)CCO [Dasatinib] (first compound max 10 µM, 7x7, partner max 2 µM) | 0.0006 | 0.06 | 0.0039 | -0.0523 | -0.0461 | 0.0331 | -0.012 | 0.0493 | 0.572 | 0.133 | 0.871 | 0.956
C[C@@H](Oc1cc(-c2cnn(C3CCNCC3)c2)cnc1N)c1c(Cl)ccc(F)c1Cl [Crizotinib] + Cn1cnc2c(F)c(Nc3ccc(Br)cc3Cl)c(C(=O)NOCCO)cc21 [Selumetinib] (first compound max 10 µM, 7x7, partner max 10 µM) | -0.0606 | -0.0392 | -0.0088 | -0.0034 | 0.0411 | -0.108 | -0.0007 | -0.0502 | 0.193 | 0.622 | 0.93 | 0.742
CS(=O)(=O)CCNCc1ccc(-c2ccc3ncnc(Nc4ccc(OCc5cccc(F)c5)c(Cl)c4)c3c2)o1 [Lapatinib] + Cn1cnc2c(F)c(Nc3ccc(Br)cc3Cl)c(C(=O)NOCCO)cc21 [Selumetinib] (first compound max 10 µM, 7x7, partner max 10 µM) | -0.031 | -0.0514 | 0.0172 | 0.0129 | -0.0418 | 0.116 | -0.0391 | -0.0109 | 0.31 | 0.868 | 0.853 | 0.339
O=C(c1cc(Cc2n[nH]c(=O)c3ccccc23)ccc1F)N1CCN(C(=O)C2CC2)CC1 [Olaparib] + CN(CC[C@H](CSC1=CC=CC=C1)NC2=C(C=C(C=C2)S(=O)(=O)NC(=O)C3=CC=C(C=C3)N4CCC(CC4)[C@H](C5=CC=CC=C5C6=CC=C(C=C6)Cl)O)S(=O)(=O)C(F)(F)F)CCO [AZD4320] (first compound max 10 µM, 7x7, partner max 1 µM) | 0.0077 | -0.0469 | -0.0086 | -0.0365 | -0.0529 | -0.0497 | -0.041 | 0.0197 | 0.168 | 0.333 | 0.177 | 0.689
O=C(c1cc(Cc2n[nH]c(=O)c3ccccc23)ccc1F)N1CCN(C(=O)C2CC2)CC1 [Olaparib] + COc1nnc2ccc(N3CCC(c4ccc(OCCN5CCN(C)C(=O)[C@H]5C)cc4)CC3)nn12 [AZD5153] (first compound max 10 µM, 7x7, partner max 1 µM) | -0.0277 | -0.0686 | -0.022 | -0.0814 | -0.0595 | -0.0388 | -0.0624 | -0.0786 | 0.264 | 0.561 | 0.419 | 0.649
O=C(c1cc(Cc2n[nH]c(=O)c3ccccc23)ccc1F)N1CCN(C(=O)C2CC2)CC1 [Olaparib] + Cc1c2c(nn1C)CSCc1cc(n(C)n1)CSc1cc(c3ccccc3c1)OCCCc1c(C(=O)O)n(C)c3c-2c(Cl)ccc13 [AZD5991] (first compound max 10 µM, 7x7, partner max 1 µM) | -0.0419 | -0.0525 | -0.0055 | -0.0478 | -0.0585 | -0.0083 | -0.0502 | -0.0134 | 0.0781 | 0.192 | 0.0746 | 0.531
Cc1nc(-c2cn3c(n2)-c2ccc(-c4cnn(C(C)(C)C(N)=O)c4)cc2OCC3)n(C(C)C)n1 [Taselisib] + O=C(Nc1ccc2[nH]nc(-c3ccncc3)c2c1)[C@@H]1CCN(CC(=O)N2CCN(c3ccc(-c4ncccn4)cc3)CC2)C1 [SCH772984] (first compound max 10 µM, 7x7, partner max 5 µM) | 0.0802 | 0.0487 | 0.0352 | 0.0017 | 0.0706 | 0.115 | -0.0437 | 0.11 | 0.423 | 0.798 | 0.93 | 0.64
